Results published in patent US20070111251A1, “Chemical address tags” (priority 2003, published 2007).

System: HeLa cells
Assay: Kinetic imaging of NBD-triazine probe uptake and sequestration, fitted to nested two-compartment transport model
Format: cell-based
Details: median over optimal solutions within 5% of the best fit
Protocol: In living cells, image data was simultaneously acquired with an automated, high-content, kinetic screening instrument equipped with an environmental chamber (see, e.g., V. C. Abraham, D. L. Taylor and J. R. Haskins, Trends in Biotechnology 22, 15 (2004); herein incorporated by reference in its entirety), as cells were incubated with the fluorescent molecules and after removal of extracellular probe. Data was analyzed off line, using an image analysis algorithm to measure the statistical pixel intensity distribution associated with fluorescence probe sequestration in the perinuclear region (see, e.g., FIG. 21; see also, e.g., G. J. Ding et al., Journal of Biological Chemistry 273, 28897 (1998); herein incorporated by reference in its entirety). Data was parametrized with a nested, two-compartment, transport model (see, e.g., W. E. Evans, J. J. Schentag and W. J. Jusko., Applied Pharmacokinetics: Principles of Therapeutic Drug Monitoring (Lippincott Williams & Wilkins, Vancouver, W.A., 1992); herein incorporated by reference in its entirety), using a statistical link function to relate the kinetic coefficient of variation (CV) of pixel intensities in the images with the concentration of probe in vesicles and cytoplasm. Optimal kinetic parameters fitting the experimental data for each probe to the system described by the two-compartment model and statistical link function were determined using the simulated annealing technique (see, e.g., M. Pincus., Oper. Res. 18, 1225 (1979); herein incorporated by reference in its entirety). The present invention is not limited to a particular mechanism. Indeed, an understanding of the mechanism is not necessary to practice the present invention.
To assess how well the model accounts for all the different kinetic traces acquired, a “PVE” (proportion of variance explained) by the model was calculated. The PVE is one minus the ratio of the sum of squared differences between observed and fitted values to the sum of squared differences between observed values and their mean. PVE values close to one indicate good fit to the nested two-compartment model. The average PVE across the probes was 0.92, with >50% of the probes yielded PVE values […]. The present invention is not limited to a particular mechanism. Indeed, an understanding of the mechanism is not necessary to practice the present invention.
Cell culture. HeLa cells were grown in RPMI+10% FCS in a 5% CO2 atmosphere at 37° C. and plated in 96-well plates at a density of 3000 cells/well 24 hours prior to the start of the experiment.
Kinetic Imaging. For influx experiments, cells on 96-well plates were switched to imaging media consisting of RPMI containing 1.0 mM Bromophenol Blue—a soluble, cell-impermeant chromophore used to suppress excitation and emission of extracellular (background) dye fluorescence-, 10 μM probe and 0.1 μM Hoescht 33258 to label the cell nuclei. Plates were then transferred to a KineticScan instrument (Cellomics, Inc., Pittsburgh, Pa.), which contains an environmentally controlled CO2/temperature/humidity chamber, and data was acquired with a 20× objective lens. Images acquisition began approximately 10 min after dye addition, using the Hoescht channel to acquire nuclear images and FITC channel to acquire the NBD image. Plate-scanning mode was used for scanning, in which the instrument builds time-stacks of images by scanning the plate multiple times, returning to the same site of the plate at every scan. For efflux experiments, dye-containing media was removed from the wells of the plate. The wells were washed twice with fresh RPMI medium, imaging media was added, and image acquisition restarted 7 min after the dye-containing media was removed. The last time points of the influx experiment served as the first time point of the efflux experiment. Plates were scanned for approximately two hours in the influx experiment and six hours for the efflux experiment, with each well imaged on average every 7 minutes. […]

Row | Compound | median Pap(cyto) (apparent partition coefficient between extracellular medium and cytosol) | median Pap(ves) (apparent partition coefficient between cytosol and intracellular vesicles, k(ves)in/k(ves)out)
1 | COc1ccc(CNc2nc(NCCCCCCNc3ccc([N+](=O)[O-])c4nonc34)nc(NC3CCC(C)CC3)n2)cc1 (stereo not drawn) [Compound C4] | 22.58 | 9.87
2 | CC(C)CCNc1nc(NCCCCCCNc2ccc([N+](=O)[O-])c3nonc23)nc(NCCC(c2ccccc2)c2ccccc2)n1 [Compound F8] | 65.86 | 10.07
3 | O=[N+]([O-])c1ccc(NCCCCCCNc2nc(NCCc3ccccc3)nc(NCc3cccc(F)c3)n2)c2nonc12 [Compound E10] | 5.10 | 14.90
4 | COc1ccc(CCNc2nc(NCCCCCCNc3ccc([N+](=O)[O-])c4nonc34)nc(NC3CCCCC3C)n2)cc1 (stereo not drawn) [Compound D5] | 9.15 | 13.58
5 | CCCCNc1nc(NCCCCCCNc2ccc([N+](=O)[O-])c3nonc23)nc(NCc2cccc(OC)c2)n1 [Compound B1] | 262.28 | 0.31
6 | CC1CCCCC1Nc1nc(NCCCCCCNc2ccc([N+](=O)[O-])c3nonc23)nc(NCCC(c2ccccc2)c2ccccc2)n1 (stereo not drawn) [Compound F5] | 6.71 | 21.53
7 | COc1ccc(CCNc2nc(NCCCCCCNc3ccc([N+](=O)[O-])c4nonc34)nc(NC3CCC(C)CC3)n2)cc1 (stereo not drawn) [Compound D4] | 99.03 | 0.22
8 | O=[N+]([O-])c1ccc(NCCCCCCNc2nc(NCCC(c3ccccc3)c3ccccc3)nc(NC3CCCCC3)n2)c2nonc12 [Compound F7] | 3.33 | 8.01
9 | CC(C)CCNc1nc(NCCCCCCNc2ccc([N+](=O)[O-])c3nonc23)nc(NCc2ccccc2)n1 [Compound A8] | 3.75 | 63.22
10 | COc1cccc(CNc2nc(NCCCCCCNc3ccc([N+](=O)[O-])c4nonc34)nc(NCC3CCCCC3)n2)c1 [Compound B6] | 242.54 | 0.36
11 | O=[N+]([O-])c1ccc(NCCCCCCNc2nc(NCc3cccc(F)c3)nc(NC3CCCCC3)n2)c2nonc12 [Compound E7] | 8.70 | 16.57
12 | COc1cccc(CNc2nc(NCCCCCCNc3ccc([N+](=O)[O-])c4nonc34)nc(NCCC(C)C)n2)c1OC [Compound H8] | 12.95 | 15.10
13 | O=[N+]([O-])c1ccc(NCCCCCCNc2nc(NCCc3ccccc3)nc(NCCC(c3ccccc3)c3ccccc3)n2)c2nonc12 [Compound F10] | 1.44 | 53.44
14 | COc1cccc(CNc2nc(NCCCCCCNc3ccc([N+](=O)[O-])c4nonc34)nc(NC(C)C)n2)c1OC [Compound H2] | 10.30 | 9.91
15 | CC(C)Nc1nc(NCCCCCCNc2ccc([N+](=O)[O-])c3nonc23)nc(NCCC(c2ccccc2)c2ccccc2)n1 [Compound F2] | 79.42 | 0.34
16 | COc1ccc(CNc2nc(NCCCCCCNc3ccc([N+](=O)[O-])c4nonc34)nc(NC(C)C)n2)cc1 [Compound C2] | 239.41 | 1.03
17 | CCCCNc1nc(NCCCCCCNc2ccc([N+](=O)[O-])c3nonc23)nc(NCc2cccc(OC)c2OC)n1 [Compound H1] | 161.46 | 0.42
18 | CC(C)Nc1nc(NCCCCCCNc2ccc([N+](=O)[O-])c3nonc23)nc(NCc2cccc(F)c2)n1 [Compound E2] | 49.62 | 8.43
19 | O=[N+]([O-])c1ccc(NCCCCCCNc2nc(NCCC(c3ccccc3)c3ccccc3)nc(NCC3CCCCC3)n2)c2nonc12 [Compound F6] | 6.76 | 19.41
20 | CC1CCC(Nc2nc(NCCCCCCNc3ccc([N+](=O)[O-])c4nonc34)nc(NCc3cccc(F)c3)n2)CC1 (stereo not drawn) [Compound E4] | 11.91 | 16.46
21 | Cc1ccc(CNc2nc(NCCCCCCNc3ccc([N+](=O)[O-])c4nonc34)nc(NC(C)C)n2)cc1 [Compound G2] | 211.16 | 0.28
22 | O=[N+]([O-])c1ccc(NCCCCCCNc2nc(NCc3ccccc3)nc(NCC3CCCCC3)n2)c2nonc12 [Compound A6] | 151.26 | 0.30
23 | CC1CCC(Nc2nc(NCCCCCCNc3ccc([N+](=O)[O-])c4nonc34)nc(NCc3ccccc3)n2)CC1 (stereo not drawn) [Compound A4] | 7.72 | 29.83
24 | Cc1ccc(CNc2nc(NCCCCCCNc3ccc([N+](=O)[O-])c4nonc34)nc(NCC3CCCCC3)n2)cc1 [Compound G6] | 35.66 | 10.12
25 | CCCCNc1nc(NCCCCCCNc2ccc([N+](=O)[O-])c3nonc23)nc(NCCc2ccc(OC)cc2)n1 [Compound D1] | 12.15 | 15.51
26 | CCCCCCCCNc1nc(NCCCCCCNc2ccc([N+](=O)[O-])c3nonc23)nc(NCc2ccc(C)cc2)n1 [Compound G3] | 0.95 | 43.97
27 | CCCCNc1nc(NCCCCCCNc2ccc([N+](=O)[O-])c3nonc23)nc(NCc2ccccc2)n1 [Compound A1] | 185.83 | 0.52
